Measurements from patent US20250144067A1, “PERSONALIZED STARVATION THERAPY FOR CANCER” (Faeth Therapeutics, Inc., priority 2021, published 2025).
Structures can show the parent of a compound that is named as a salt. Where two headings read alike, the source gives them in different places. Peptide text beside a SMILES is read from it.

Legend:
[1] = test system: NCI-H292 lung cancer cells; assay: FDA drug screening, complete media vs cholesterol-free media with simvastatin (TABLE 2); type: cell-based, human
[2] = test system: NCI-H292 lung cancer cells; assay: FDA drug screening, complete media vs cholesterol-free media without statin (TABLE 1); type: cell-based, human
[3] = NCI-H292 cells, cholesterol-free media with simvastatin 0.04 μM, cell growth value in FDA drug screen
[4] = NCI-H292 cells, complete media, cell growth value in FDA drug screen
[5] = complete media minus cholesterol-free media + simvastatin, >0 enhanced anti-cancer activity, about 0 neutral, <0 antagonist
[6] = Complete minus Cholesterol-free, >0 enhanced anti-cancer activity, about 0 neutral, <0 antagonist
[7] = NCI-H292 cells, cholesterol-free media without statin
[8] = NCI-H292 cells, FDA library drug in cholesterol-free media with simvastatin 0.04 μM
[9] = NCI-H292 cells, FDA library drug in complete media
[10] = complete media vs cholesterol-free media + simvastatin (0.04 μM), >0 enhanced anti-cancer activity, about 0 neutral, <0 antagonist
[11] = Complete minus Cholesterol-free, greater than 0 enhanced anti-cancer activity, about 0 neutral, below 0 antagonist
[12] = NCI-H292 cells, FDA drug library screen, cholesterol-free media without statin
[13] = NCI-H292 cells, FDA drug library screen, complete media
[14] = NCI-H292 cells, FDA drug library screen, cholesterol-free media with simvastatin 0.04 μM
[15] = complete vs cholesterol-free media, greater than 0 enhanced anti-cancer activity, about 0 neutral, below 0 antagonists
[16] = NCI-H292 cells, cholesterol-free media with simvastatin 0.04 μM, FDA drug library screen (TABLE 2)
[17] = NCI-H292 cells, complete media, FDA drug library screen (TABLE 2)
[18] = complete media minus cholesterol-free media + simvastatin (0.04 μM), >0 enhanced anti-cancer activity, about 0 neutral, <0 antagonist
[19] = NCI-H292 cells, cholesterol-free media without statin, FDA drug library screen
[20] = NCI-H292 cells, complete media, FDA drug library screen
[21] = complete vs cholesterol-free media, […]
[22] = complete media minus cholesterol-free media + simvastatin, […]
[23] = Complete minus Cholesterol-free, […]
[24] = NCI-H292 cells, cholesterol-free media with simvastatin 0.04 μM, […]
[25] = NCI-H292 cells, complete media, […]

C[N+]12CCC(CC1)C(OC(=O)C(O)(c1ccccc1)c1ccccc1)C2.[Br-] (centres unmarked) [Clidinium (bromide)]
Cholesterol-free media + simvastatin (0.04 μM) [1]: 1.456
Complete Media [1]: 1.482
Difference [1]: 0.03
Cholesterol-free [2]: 1.17
Complete [2]: 1.604
Difference [2]: 0.43

Cn1c(=O)cc(N2CCC[C@@H](N)C2)n(Cc2cc(F)ccc2C#N)c1=O [Trelagliptin]
Cholesterol-free media + simvastatin (0.04 μM) [1, 3]: 1.142
Complete Media [1, 4]: 1.234
Difference [1, 5]: 0.09
Difference [2, 6]: −0.22
Cholesterol-free [2, 7]: 0.9224
Complete ([2]; NCI-H292 cells, complete media): 0.705

COC(=O)N[C@H](C(=O)N1CC2(CC2)C[C@H]1c1nc(-c2ccc3c(c2)C(F)(F)c2cc(-c4ccc5[nH]c([C@@H]6[C@H]7CC[C@H](C7)N6C(=O)[C@@H](NC(=O)OC)C(C)C)nc5c4)ccc2-3)c[nH]1)C(C)C [Ledipasvir]
Cholesterol-free media + simvastatin (0.04 μM) [1, 8]: 1.189
Complete Media [1, 9]: 0.6926
Difference [1, 10]: −0.50
Difference [2, 11]: −0.17
Cholesterol-free [2, 12]: 0.5821
Complete [2, 13]: 0.4142

CCC(C)(C)c1ccc(CC(C)CN2C[C@@H](C)O[C@@H](C)C2)cc1 (some centres unmarked) [Amorolfine (hydrochloride)]
Cholesterol-free media + simvastatin (0.04 μM) [1, 14]: 0.4078
Complete Media [1, 13]: 1.021
Difference [1, 5]: 0.61
Cholesterol-free [2, 7]: 1.233
Complete ([2]; NCI-H292 cells, complete media): 0.8449
Difference [2, 15]: −0.39

O=C1CC[C@@H](C(=O)N2CSC[C@H]2C(=O)O)N1 [Pidotimod] (HELM PEPTIDE1{[Glp].[O=C(O)[C@@H]1CSCN1[*:1]]}$$$$V2.0)
Cholesterol-free media + simvastatin (0.04 μM) [1, 16]: 1.016
Complete Media [1, 17]: 1.03
Difference [1, 18]: 0.01
Cholesterol-free [2, 7]: 1.383
Complete ([2]; NCI-H292 cells, complete media): 0.9708
Difference [2, 15]: −0.41

CN1C(=O)OC(C)(C)C1=O [Trimethadione]
Cholesterol-free media + simvastatin (0.04 μM) [1, 3]: 1.017
Complete Media [1, 4]: 1.08
Difference [1, 5]: 0.06
Difference [2, 6]: −0.23
Cholesterol-free [2, 7]: 1.085
Complete ([2]; NCI-H292 cells, complete media): 0.857

CC1(C)S[C@@H]2[C@H](NC(=O)[C@H](NC(=O)N3CCNC3=O)c3ccccc3)C(=O)N2[C@H]1C(=O)O [Azlocillin (sodium salt)]
Cholesterol-free media + simvastatin (0.04 μM) [1, 14]: 1.046
Complete Media [1, 13]: 0.9592
Difference [1, 10]: −0.09
Difference [2, 11]: −0.16
Cholesterol-free [2, 12]: 1.217
Complete [2, 13]: 1.06

O=C1c2c(O)ccc(O)c2C(=O)c2c(NCCNCCO)ccc(NCCNCCO)c21 [Mitoxantrone]
Cholesterol-free media + simvastatin (0.04 μM) [1, 16]: 0.04539
Complete Media [1, 17]: −0.01641
Difference [1, 18]: −0.06
Difference [2, 6]: −0.04
Cholesterol-free [2, 19]: 0.007289
Complete [2, 20]: −0.03159

CO[C@H]1C(=O)[C@]2(C)[C@@H](OC)C[C@H]3OC[C@@]3(OC(C)=O)[C@H]2[C@H](OC(=O)c2ccccc2)[C@]2(O)C[C@H](OC(=O)[C@H](O)[C@@H](NC(=O)OC(C)(C)C)c3ccccc3)C(C)=C1C2(C)C [Cabazitaxel]
Cholesterol-free media + simvastatin (0.04 μM) [1, 16]: 0.364
Complete Media [1, 17]: 0.3065
Difference [1, 18]: −0.06
Difference [2, 6]: −0.01
Cholesterol-free [2, 19]: 0.2044
Complete [2, 20]: 0.198

Cc1cc(CC(C)CC(C)(C)C)n(O)c(=O)c1.NCCO (centres unmarked) [Piroctone olamine]
Cholesterol-free media + simvastatin (0.04 μM) [1, 3]: 0
Complete Media [1, 4]: 0.02737
Difference [1, 5]: 0.03
Difference [2, 6]: −0.05
Cholesterol-free [2, 19]: 0.04765
Complete [2, 20]: 0.0002612

Pimavanserin tartrate
Cholesterol-free media + simvastatin (0.04 μM) [1, 14]: 1.092
Complete Media [1, 13]: 0.9419
Difference ([1]; complete media vs cholesterol-free media + simvastatin (0.04 μM), […]): −0.15
Cholesterol-free [2, 7]: 1.261
Complete ([2]; NCI-H292 cells, complete media): 0.9005
Difference [2, 21]: −0.36

CCC1(C)CC(=O)NC(=O)C1 [Bemegride]
Cholesterol-free media + simvastatin (0.04 μM) [1, 14]: 0.8627
Complete Media [1, 13]: 1.013
Difference [1, 22]: 0.15
Difference [2, 23]: −0.76
Cholesterol-free ([2]; NCI-H292 cells in cholesterol-free media without statin): 1.658
Complete ([2]; NCI-H292 cells in complete media): 0.894

C[N+](C)(C)C[C@H](O)CC(=O)[O-].Cl [L-Carnitine (hydrochloride)]
Cholesterol-free media + simvastatin (0.04 μM) [1, 24]: 0.7755
Complete Media [1, 25]: 0.7998
Difference [1, 22]: 0.02
Cholesterol-free [2, 7]: 1.478
Difference [2, 21]: −0.31

O=C(CCBr)N1CCN(C(=O)CCBr)CC1 [Pipobroman]
Cholesterol-free media + simvastatin (0.04 μM) [1, 8]: 1.384
Complete Media [1, 9]: 1.051
Difference [1, 10]: −0.33
Difference [2, 6]: −0.30
Cholesterol-free [2, 7]: 1.38
Complete ([2]; NCI-H292 cells, complete media): 1.078

CN1CCC(=C2c3ccccc3CCn3c(C=O)cnc32)CC1 [Alcaftadine]
Cholesterol-free media + simvastatin (0.04 μM) [1]: 1.165
Complete Media [1]: 0.9908
Difference [1]: −0.17
Cholesterol-free [2]: 1.45
Complete [2]: 1.003
Difference [2]: −0.45

(−)-Sparteine (sulfate pentahydrate)
Cholesterol-free media + simvastatin (0.04 μM) [1, 24]: 0.83
Complete Media [1, 25]: 0.9345
Difference [1, 22]: 0.10
Cholesterol-free [2, 7]: 1.28
Complete ([2]; NCI-H292 cells, complete media): 0.8579
Difference [2, 21]: −0.42

Dimenhydrinate
Cholesterol-free media + simvastatin (0.04 μM) [1, 3]: 0.8945
Complete Media [1, 4]: 0.9753
Difference [1, 5]: 0.08
Cholesterol-free [2, 7]: 1.237
Complete ([2]; NCI-H292 cells, complete media): 0.8523
Difference [2, 15]: −0.39

CN(C)C(=O)c1ccc(S(=O)(=O)c2ccc(NC(=O)[C@@](C)(O)C(F)(F)F)c(Cl)c2)cc1 [AZD7545]
Cholesterol-free media + simvastatin (0.04 μM) [1, 14]: 0.8136
Complete Media [1, 13]: 1.088
Difference [1, 22]: 0.27
Difference [2, 23]: −0.01
Cholesterol-free [2, 19]: 0.721
Complete [2, 20]: 0.7125

COC(=O)Nc1nc2ccc(C(=O)c3ccccc3)cc2[nH]1 [Mebendazole]
Cholesterol-free media + simvastatin (0.04 μM) [1, 3]: 0.4675
Complete Media [1, 4]: 0.5846
Difference [1, 5]: 0.12
Cholesterol-free [2, 19]: 0.1458
Complete [2, 20]: 0.3848
Difference ([2]; complete vs cholesterol-free media, >0 enhanced anti-cancer activity, about 0 neutral, <0 antagonist): 0.24

CC(CCc1ccc(O)cc1)NCCc1ccc(O)c(O)c1 (centres unmarked) [Dobutamine (hydrochloride)]
Cholesterol-free media + simvastatin (0.04 μM) [1, 14]: 0.8343
Complete Media [1, 13]: 1.237
Difference [1, 5]: 0.40
Difference [2, 6]: 0.01
Cholesterol-free [2, 19]: 1.125
Complete [2, 20]: 1.131

N[C@@H](Cc1ccccc1)C(=O)O [L-Phenylalanine]
Cholesterol-free media + simvastatin (0.04 μM) ([1]; NCI-H292 cells, drug in cholesterol-free media with simvastatin 0.04 μM): 0.988
Complete Media ([1]; NCI-H292 cells, drug in complete media): 0.7918
Difference [1, 10]: −0.20
Difference [2, 6]: −0.24
Cholesterol-free [2, 7]: 1.103
Complete ([2]; NCI-H292 cells, complete media): 0.8607

OC(c1ccccc1)(c1ccccc1)C12CC[N+](CCOCc3ccccc3)(CC1)CC2.[Br-] [Umeclidinium (bromide)]
Cholesterol-free media + simvastatin (0.04 μM) [1]: 1.336
Complete Media [1]: 0.9344
Difference [1]: −0.40
Cholesterol-free [2]: 0.5848
Complete [2]: 0.7554
Difference [2]: 0.17
